Source: patent US20090227572A1, “TREATMENT OF DIABETIC WOUNDS AND PERIPHERAL NEUROPATHIES” (Cytrx Corporation, priority 2007, published 2009)

Tests used:
[1] = test system: BKS.Cg-m^+/+ Lepr^db/J homozygous mice; assay: Wound healing in diabetic db/db mice, daily oral dosing (Example 1); format: in vivo
Excerpt: Seventy male BKS.Cg-m^+/+ Lepr^db/J homozygous mice were housed and handled for seven (7) days prior to commencement of the procedure for acclimation purposes. The mice weighed 26.1-41.2 g on Day 0, at the age of 8 weeks. As control, twenty male BKS.Cg-m^+/− Lepr^db/J heterozygous mice were handled similarly. These mice weighed 19.6-25.1 g on Day 0, at the age of 8 weeks. Mice were divided into Groups (1) to (9), each group consisting of 10 mice.
On Day 0, two full-thickness wounds were made on each mouse in Groups A-I (n=80). […]
Immediately following the generation of the skin wound, the original wound was traced by using a fine point maker to outline the perimeter of the wound onto transparency paper (the mouse was immobilized using isoflurane anesthesia for this procedure), and wound size was then traced every 3 days. […] Outlines were digitized, quantified and analyzed using computer imaging software as described below.
The mice began daily dosing as detailed in Table 1 on the day of wounding. The mice continued to receive daily treatment until wound closure as determined by the study director and the client. Blood glucose levels were measured by glucometer prior to the first scheduled dosing and weekly thereafter-using blood collected by tail nick. Body weights were measured weekly beginning prior to treatment. […]
Raw data was reviewed (read and understood) for accuracy. […]

[2] = test system: Homozygous, diabetic mice; assay: Wound healing in homozygous diabetic mice, systemic or topical administration (Example 2); format: in vivo; settings: topical administration, 4% w/v aqueous solution, FIG. 7
Protocol: Homozygous, diabetic mice described above, and wounded in the manner described above in Example 1, were treated by topical administration of iroxanadine or arimoclomol. A 4% w/v aqueous solution of arimoclomol were separately administered topically to the wounded position. […] dosage of iroxanadine was at 10 mg/kg IP, b.i.d., a relatively low concentration.

[3] = Morbidity, mortality and body weights in the wound healing study (Example 1); format: in vivo, mice
Protocol: The mice began daily dosing as detailed in Table 1 on the day of wounding. The mice continued to receive daily treatment until wound closure as determined by the study director and the client. Blood glucose levels were measured by glucometer prior to the first scheduled dosing and weekly thereafter-using blood collected by tail nick. Body weights were measured weekly beginning prior to treatment. Clinical observations were conducted weekly.

[4] = mice, previously determined; cited from earlier work
[5] = rat, subchronic studies; cited from earlier work

| Compound | wound closure rate ([1]; rate analysed for Days 0-8 (with ethanol) and Days 9-12 (no ethanol), FIG. 5E) | odds of closure of both wounds (hazard ratio, proportional hazard model) ([1]; relative to homozygous diabetic control Group (3), iroxanadine 10-200 mg/kg Groups (4)-(8), arimoclomol 200 mg/kg Group 9, QD PO, FIG. 4) | wound healing over time [2] | tolerability of the highest dose relative to maximum tolerated dose (MTD) ([3]; 200 mg/kg QD PO, administered with EtOH) | unplanned mice deaths outside of the study protocol ([3]; highest dose 200 mg/kg QD PO, Groups (2) and (8), formulation contained EtOH Days 0-8) | effect on body weight ([3]; mice, daily until wound closure, FIG. 1A-B) | acute oral LD50 [4] [mg/kg] | no observed adverse effect level (NOAEL) [5] [mg/kg] |
| --- | --- | --- | --- | --- | --- | --- | --- | --- |
| [O-][n+]1cccc(/C(Cl)=N/OC[C@H](O)CN2CCCCC2)c1 [arimoclomol, N-[2-hydroxy-3-(1-piperidinyl)propoxy]-pyridine-1-oxide-3-carboximidoyl chloride] | statistically relevant increase in the wound closure rate | appeared to be effective in increasing the odds of wound closure | clearly showed an accelerated healing of wounds |  |  |  |  |  |
| c1cncc(C2=NOCC(CN3CCCCC3)N2)c1 (centres unmarked) [iroxanadine, 5,6-dihydro-5(1-piperidinyl)-methyl-3-(3-pyridyl)-4H-1,2,4-oxadiazine] |  |  |  | may be above the maximum tolerated dose (MTD) and approaching LD50 | Eight of the nine deaths | No significant effect on body weight was observed except in diabetic animals treated with the highest dose | 3800 | 400 |
